The values below come from patent US6426202B1, “Nystatin-resistant Aspergillus terreus CLS 247-13, KCTC 0673BP for preparing triol heptanoic acid employing the same” (priority 1999, dated 2002).

Structures are written as SMILES.

Assay [1] relates to parent strain Aspergillus terreus CLS216-7. Description: Minimal inhibitory concentration of nystatin, parent strain. Type of assay: cell-based. Particulars: parent strain CLS216-7. As for the experimental part: (§1) After incubating the culture in a liquid minimal medium containing nystatin for 1.5-3 hours, it was washed with saline solution, concentrated, diluted properly, and spreaded onto solid minimal medium containing 150 μg/ml of nystatin, and then the resultant was incubated at 28° C. for 8-15 days to isolate viable mutant strains. The isolated mutant strains resistant to nystatin, showing various morphological characteristics, were subcultured on solid minimal media containing increasing concentrations of nystatin (i.e., 150, 160, 170, 180, 190 and 200 […]) to select mutants showing increased resistance. The nystatin-resistant mutants thus obtained were incubated in an agar slant medium for 15-20 days. The spores formed were recovered in a 20% glycerin solution and subjected to liquid culture as disclosed in Example 2 below. As a result, the productivity of mevinolinic acid decreased and a variety of its analogues appeared. The mutant showing a high productivity of triol heptanoic acid of at least 11.5 g/L was selected and named ‘Aspergillus terreus CLS247-13’. Aspergillus terreus CLS247-13 maintained morphological characteristics, resistance to nystatin and high productivity of triol heptanoic acid constantly on a solid minimal medium containing 2 g/L of yeast extract for 10 generations. […]

In assay [2] the test system is mutant strain Aspergillus terreus CLS247-13. Description: Minimal inhibitory concentration of nystatin, mutant strain. It is filed as cell-based. As to the method:
as §1

As for `C[C@@H]1[C@H](O)[C@@H](C)/C=C/C=C/CC/C=C/C=C/C=C/C=C/C(O[C@H]2O[C@H](C)[C@@H](O)[C@H](N)[C@@H]2O)CC2O[C@](O)(CC(O)C(O)CCC(O)CC(O)CC(O)CC(=O)O[C@H]1C)CC(O)C2C(=O)O` (stereo partly drawn) [nystatin], the “Minimal inhibitory conc. of nystatin” value is “≦25 μg/ml” in assay [1] and “≦200 μg/ml” in assay [2] (mutant strain CLS247-13). The “increase of minimal inhibitory concentration of nystatin (resistance to nystatin) compared with parent strain” value in assay [2] (mutant strain CLS247-13 compared with parent strain CLS216-7) is recorded as 8 fold.
